Test results from ChEMBL document CHEMBL1157539, “Thousands of chemical starting points for antimalarial lead identification” (Nature, 2010).

These compounds were tested on Plasmodium falciparum (assay: GSK_TCMDC: Inhibition of Plasmodium falciparum 3D7 in whole erythrocytes, using parasite LDH activity as an index of growth.). Conditions: Plasmodium falciparum, 3D7.
Format: functional, organism-based

In order of falling XC50:
1. O=C(Nc1ccc(Cl)cc1)c1cc(Cl)ccc1NC(=O)C1CCc2ccccc2O1 (centres undefined)  1790 nM
2. COc1ccc(NC(=O)C2c3ccccc3C(=O)N(C3CCCC3)C2c2cccs2)cc1 (centres undefined)  1710 nM
3. Cc1ccc2c(Cl)c(C(=O)N3CCCc4ccccc43)sc2c1  1510 nM
4. COc1ccccc1-c1cccc(CNC2CCN(CC3Cn4c(=O)ccc5ccc(F)c3c54)CC2)c1 (centres undefined)  1380 nM
5. O=C(Nc1cc(C(F)(F)F)ccc1Cl)c1ccc(Cn2cc(Br)cn2)cc1  1350 nM
6. CN(C)Cc1ccc2cc(NC(=O)c3ccc(-c4ccc(Cl)cc4)cc3)ccc2c1  1340 nM
7. O=C1COC2(CN1C1CCN(Cc3ccc(O)cc3Cl)C1)c1ccccc1-c1ccccc12 (centres undefined)  1330 nM
8. FC(F)(F)CNc1nc(Nc2ccc3ncccc3c2)nc2[nH]ccc12  1240 nM
9. Cc1cc(NCCC(=O)Nc2ccccc2)nc(NCCc2cccnc2)n1  1240 nM
10. O=C(/C=C/c1ccc(Cl)c(Cl)c1)N1CCC(CNCc2cccc3cc[nH]c23)CC1  1220 nM
11. CN/C(=N\O)NCCN(C)C  1180 nM
12. O=C(NC1CCC(CN2CCC(c3c[nH]c4ccccc34)CC2)CC1)NC12CC3CC(CC(C3)C1)C2 (centres undefined)  1060 nM
13. CC(C)N1CCC(N(Cc2ccc(-c3ccc(C(F)(F)F)cc3)cc2)C(=O)Cn2c(SCc3cccc(F)c3F)nc(=O)c3ccccc32)CC1  1050 nM
14. CN1c2ccccc2Sc2cc(CNCCSCCNCc3ccc4c(c3)Sc3ccccc3N4C)ccc21  1010 nM
15. COC[C@H]1CCCN1Cc1ccc(-c2ccc(-c3nc4ccccc4[nH]3)s2)cc1  1000 nM
16. Clc1ccc(CNCC2CCN(CC3CCCCC3)CC2)cc1Cl  1000 nM
17. Clc1ncccc1-c1nc(NCCC(c2ccccc2)c2ccccc2)no1  1000 nM
18. COc1cc2c(cc1OC)C(C(=O)Nc1cc(OC)c(OC)c(OC)c1)C(c1ccc(SC)cc1)N(C)C2=O (centres undefined)  986 nM
19. COc1cccc(CN2CCC(N3CCc4cc(NC(=O)c5cc(C)on5)ccc43)C2)c1OC (centres undefined)  952 nM
20. CO/C(=C\C=C\c1cc2cc(Cl)c(Cl)cc2[nH]1)C(=O)NCCCN1CCC(c2ccccc2)CC1  906 nM
21. Cc1cccc(CNc2nc(C)cc(NCCC(=O)NCCOc3ccccc3)n2)c1  871 nM
22. c1ccc(COc2ccc(Nc3ncnc4cnc(-c5ccc(CNc6cccnc6)o5)cc34)cc2)cc1  857 nM
23. CN(C)c1ccc(-c2nnc(Sc3ccc(C#N)c([N+](=O)[O-])c3)n2Cc2ccco2)cc1  854 nM
24. O=C(Nc1ccnc(-c2cccnc2)n1)c1cc(C(F)(F)F)cc(C(F)(F)F)c1  823 nM
25. O=C(/C=C/c1ccc(Cl)c(Cl)c1)NCCCCCN1CCCC(c2c[nH]c3ccccc23)C1 (centres undefined)  812 nM
26. O=S(=O)(NCCN1CCCC1)c1cccc(-c2cccc(CNCc3ccccc3)c2)c1  811 nM
27. O=C(Nc1ccc(Cn2ncc(N3CCCNCC3)c(Cl)c2=O)cc1)Nc1ccc(-c2ccccc2)cc1  797 nM
28. COc1ccc(-c2ccc(CNCc3ccsc3)cc2)cc1S(=O)(=O)NCCN1CCCC1  794 nM
29. CON=Cc1ccn(-c2ccc(O)c3c2C[C@H]2C[C@H]4[C@H](N(C)C)C(O)=C(C(N)=O)C(=O)[C@@]4(O)C(O)=C2C3=O)c1  773 nM
30. c1cc(-c2ccc(CNC3CCOCC3)cc2)cc(-c2nc3ccccc3[nH]2)c1  768 nM
31. CCN(CC)CCN(CCCc1ccc(-c2ccc(C(F)(F)F)cc2)cc1)C(=O)Cn1c(CCc2cccc(F)c2F)nc(=O)c2ccccc21  767 nM
32. Cc1nc(C)n(CC(=O)Nc2cccc(-c3cccc(-c4nc5cc(C(F)(F)F)ccc5[nH]4)c3)c2)n1  761 nM
33. Cc1nc(-c2cccc3c(NC(=O)N4CCc5cc6nccc(N7CCN(C)CC7)c6cc54)cccc23)no1  760 nM
34. N#Cc1cccc(C(=O)Nc2cccc(-c3ccc(C(=O)NCCCN4CCOCC4)cc3)c2)c1  749 nM
35. O=C(NC1CCCCN(Cc2ccccc2O)C1)c1ccc(Cl)c(Cl)c1 (centres undefined)  747 nM
36. OC(c1nnc(S)n1-c1ccccc1)C(O)c1nnc(S)n1-c1ccccc1 (centres undefined)  741 nM
37. O=C(Nc1ccc(C(=O)OCC2CCCN3CCCCC23)cc1)c1ccc(Cl)c(Cl)c1 (centres undefined)  721 nM
38. Cc1[nH]c2ccccc2c1C(=O)CSc1nn(-c2ccccc2)c(=S)s1  699 nM
39. COc1cc(NC(=O)NC(CCN2CCC3(CCc4ccccc43)CC2)c2ccc(Cl)c(Cl)c2)cc(OC)c1OC (centres undefined)  679 nM
40. CC(C)(C)Nc1cc(C2CC2)nc(-c2ccccn2)n1  679 nM
41. CC(C)n1ncc2c(C(=O)N3CCCC4CCCCC43)cc(C3CC3)nc21 (centres undefined)  676 nM
42. CCOc1ccc2c(=NN=Cc3ccccc3F)cc(C)[nH]c2c1  676 nM
43. CCOc1c(CCNCCCCNCCc2ccc3ccccc3c2OCC)ccc2ccccc12  596 nM
44. Cc1ccccc1N1CCN(c2ccc(C(=O)Nc3ccccc3)cn2)CC1  587 nM
45. Cc1ccc2c(c1)nc(N)n2C[C@H](O)c1ccccc1  582 nM
46. FC(F)(F)c1cccc(CNC2CCN(CC3CCCCC3)CC2)c1  575 nM
47. CCN(CC)CCCC(C)N=c1cc(C=Cc2ccc([N+](=O)[O-])cc2)[nH]c2ccc(OC)cc12 (centres undefined)  574 nM
48. OCC1CCN(Cc2ccc(-c3ccc(-c4nc5cc(C(F)(F)F)ccc5[nH]4)s3)cc2)CC1  477 nM
49. CC(C)CNCc1cccc(-c2ccc(CN(C(=O)Nc3ccccc3)C3CCN(Cc4ccccc4)CC3)cc2)c1  476 nM
50. O=c1cc(NCCCNCc2cc3c(Cl)cccc3s2)[nH]c2ccccc12  474 nM
51. COc1cc2c(cc1S(=O)(=O)c1ccc(NC(=O)Nc3ccc(F)cc3)cc1)CCN(C)CC2  473 nM
52. CC(C)CNCc1ccc(-c2cccc(CN(C(=O)Nc3ccccc3)C3CCN(Cc4ccccc4)CC3)c2)cc1  410 nM
53. Cc1cccc2nc(-c3ccc(-c4ccc(CN5CCCC(N)C5)cc4)s3)[nH]c12 (centres undefined)  382 nM
54. CN1CCN(c2ccnc3ccc(NC(=O)Nc4ccccc4Br)cc23)CC1  372 nM
55. O=C(Nc1ccc(Cl)cc1C(=O)Nc1cccc(F)c1)c1ccc([N+](=O)[O-])cc1  365 nM
56. CC(Cc1ccc(NC(=O)c2ccc(CNCCc3ccccc3)cc2)cc1)NCCc1cccc(Cl)c1 (centres undefined)  353 nM
57. CCC[C@@H]([C@@H](CC1CCC(C)CC1)C(=O)N[C@@H](CO)C(=O)Nc1nccs1)N(O)C=O (some centres undefined)  325 nM
58. O=C(Nc1ccccc1)N(Cc1ccc(-c2cccc(CNCc3ccc4c(c3)OCO4)c2)cc1)C1CCN(Cc2ccccc2)CC1  284 nM
59. N#Cc1ccc(-c2cnc3ccc(NCCc4cccnc4)nn23)cc1  255 nM
60. N#Cc1cc([N+](=O)[O-])ccc1-n1nc(-c2cccc(Cl)c2)n(Cc2ccco2)c1=S  196 nM
61. O=C(Nc1ccc(OC2CCN(Cc3ccc(F)cc3)CC2)c(Cl)c1)c1ccc(F)cc1  188 nM
62. COc1cc2nc(-c3ccc(Br)cc3)cc(N)c2cc1OC  173 nM
63. CCNc1cc(C(=O)N[C@@H](Cc2ccccc2)[C@H](O)CNC2CCCCC2)cc(N2CCCCS2(=O)=O)c1  170 nM
64. O=C(NC1CCC(CN2CCC(c3c[nH]c4ccccc34)CC2)CC1)c1cc(-c2ccccc2)c(C(F)(F)F)s1 (centres undefined)  167 nM
65. CCOC(=O)CNCC(=O)c1ccc(OCc2ccccc2)cc1  161 nM
66. CCC(CN1C(=O)C(c2ccccc2)(c2ccccc2)N=C1N)c1ccccc1 (centres undefined)  136 nM
67. CCCOC(=O)C1=C(C)NC2=C(C(=O)CC(c3ccc(OC)c(OC)c3)C2)C1c1cccc(O)c1 (centres undefined)  121 nM
68. CC[C@H]1CN2CC[C@@H]1C[C@H]2[C@H](O)c1cc(N2CCC(O)(c3ccccc3)CC2)nc2ccc(OC)cc12  90 nM
69. N#Cc1ccc(Cn2ccc3c4c(N)nc(N)nc4ccc32)cc1  3.29 nM
